In US20240368133A1, “Compounds for the Treatment of Pain, in Particular, Neuropathic Pain, and/or Other Diseases or Disorders that are Associated with AT2R and/or AT2R Mediated Signaling” (Confo Therapeutics N.V., priority 2021, published 2024):

Assays:
CYP2C19 = CYP2C19 (Homo sapiens (Human), UniProt P33261); experiment: CYP inhibition, CYP2C19; type: in vitro ADME; conditions: test compound at 10 μM, read-out: % Inhibition (PIN) 2C19
Method: The aim of this assay is to determine the inhibitory potential of a test compound. A major concern for drug-drug-interaction is cytochrome P450 inhibition. Reversible CYP inhibition was determined in human liver microsomes using specific probe substrates for human cytochrome P450 isoenzymes CYP1A2, 2C9, 2C19, 2D6 and 3A4. […]
(§1) A 10 mM stock solution of test compound is prepared in methanol. This stock is further serially diluted 1:3 in methanol and then added to mixture containing 50 mM potassium phosphate buffer pH7.4, human liver microsomes (BD Gentest) and probe substrate. After pre-warming 5 min at 37° C., the reaction is started by adding co-factor mix ([…] glucose-6-phosphate, 1.7 mg/mL NADP, 6 U/mL of glucose-6-phosphate dehydrogenase), resulting in a final concentration of test compound at 10 μM (2% MeOH).
(§2) Final concentrations of co-factor mix components are as follows: 1.56 mg/mL glucose-6-phosphate, 0.34 mg/mL NADP, 1.2 U/mL of glucose-6-phosphate dehydrogenase.
(§3) After incubation at 37° C., the reaction (aliquot of 50 μL) is terminated with 150 μL CH3CN:MeOH (2:1) solution with internal standard (warfarin for 2C9, diclofenac for all other tested isoforms). Samples are centrifuged and the supernatant fractions analyzed by LC-MS/MS.
(§4) The instrument responses (ratio of test compound and internal standard peak areas) are referenced to those for solvent controls (assumed as 100%) in order to determine the percentage reduction in probe metabolism. Percent of control activity vs. concentration plots are generated and fitted using GraphPad Prism software to generate IC50.

[1] = Liver microsomal stability, mouse; type: in vitro ADME; conditions: male, pH 7.4, liver microsomes
Method: Mouse hepatic microsomes were isolated from pooled (50), perfused livers of male Balb/c mice. Rat hepatic microsomes were isolated from pooled (15), perfused livers of male Wistar rats. Isolation was performed according to the standard protocol (Hill, J. R. in Current Protocols in Pharmacology 7.8.1-7.8.11, Wiley Interscience, 2003). The batches of microsomes were tested for quality control using Imipramine, Propranolol and Verapamil as reference compounds.
Microsomal incubations were carried out in 96-well plates in 5 aliquots of 40 μL each (one for each time point). Liver microsomal incubation medium contained PBS (100 mM, pH 7.4), MgCl2 (3.3 mM), NADPH (3 mM), glucose-6-phosphate (5.3 mM), glucose-6-phosphate dehydrogenase (0.67 units/ml) with 0.42 mg of liver microsomal protein per ml. Control incubations were performed replacing the NADPH-cofactor system with PBS. Test compound (2 μM, final solvent concentration 1.6%) was incubated with microsomes at 37° C., shaking at 100 rpm. Incubations were performed in duplicates. Five time points over 40 minutes have been analyzed. The reactions were stopped by adding 12 volumes of 90% acetonitrile-water to incubation aliquots, followed by protein sedimentation by centrifuging at 5500 rpm for 3 minutes. […]. Supernatants were analyzed using the HPLC system coupled with tandem mass spectrometer (API3000 PE Sciex). Acquisition and analysis of the data were performed using Analyst 1.5.2 software (PE Sciex). The elimination constant (kel), half-life (t½) and intrinsic clearance (Clint) were determined in plot of […] versus time, using linear regression analysis:
Mouse hepatic microsomes were isolated from pooled, perfused livers of male CD1 mice. Rat hepatic microsomes were isolated from pooled, perfused livers of male Sprague Dawley rats. Dog hepatic microsomes were isolated from pooled, perfused livers of male Beagle dogs. The batches of microsomes were tested for quality control using Testosterone, Propranolol and Caffeine as reference compounds.
A 10 mM stock solution of compound in DMSO is diluted three-fold in DMSO. This pre-diluted compound solution is then further diluted to 2 μM in a 50 mM phosphate buffer (PBS, pH 7.4) and pre-warmed at 37° C. This compound dilution is mixed F2 with microsomal/cofactor mix at 37° C. under shaking at 300 rpm. Final reaction conditions are: 100 μL incubation volume, 1 μM of test compound (in duplicate), <0.1% DMSO, 0.5 mg/mL microsomes, 0.6 U/mL Glucose-6-phosphate-dehydrogenase (G6PDH, Roche, 10127671001), 3.3 mM MgCl2 (Sigma, M2670), 3.3 mM glucose-6-phosphate (Sigma, G-7879) and 1.3 mM NADP+ (Sigma, N-0505).
After 60 min of incubation at 300 rpm and 37° C., the reaction was stopped with 3 volumes of STOP solution (acetonitrile/MeOH 2/1 with diclofenac as internal standard). For the time point zero, 3 volumes of STOP solution were added to the compound dilution before the microsome mix was added. Six time points over 60 minutes have been analyzed. The samples of all time points were centrifuged, filtered and the supernatant analyzed by LCMS/MS (systems API4000).
The instrument responses (peak areas/IS peak area) were referenced to the zero time-point samples (considered as 100%) in order to determine the percentage of compound remaining.
Testosterone (1 μM) and Propranolol and Caffeine (1 μM) were used as reference compounds, being unstable and stable compounds respectively. If the microsomal stability values for these controls are not in the range determined by the historical data, the assay is not validated. The solubility of the compound in the final test concentration in 50 mM buffer pH 7.4 is checked by microscope to indicate whether precipitation is observed or not. If a precipitate is observed, no data of microsomal stability is generated.

CYP1A2 = CYP1A2 (Homo sapiens (Human), UniProt P05177); experiment: in vitro
Method: The aim of this assay is to determine the inhibitory potential of a test compound. A major concern for drug-drug-interaction is cytochrome P450 inhibition. Reversible CYP inhibition was determined in human liver microsomes using specific probe substrates for human cytochrome P450 isoenzymes CYP1A2, 2C9, 2C19, 2D6 and 3A4.
The potential for CYP450 inhibition was assessed by performing in vitro inhibition studies using fluorogenic CYP450 substrates with the corresponding CYP450 enzymes and NADPH regeneration system (Vivid CYP450 Screening Kits) with some minor changes to the manufacturer's protocols. The fluorescent signal produced from reaction is directly proportional to the cytochrome P450 activity. In the cases when tested compounds interfere with the CYP450 enzyme-substrate reaction, the fluorescent signal decreases. In brief, the tested compounds were first dissolved in DMSO at 100× concentration (1 mM), and diluted in buffer to 2.5× concentration (25 μM). Then the 2.5× compound solutions were mixed with the Master Pre-mix consisting of Human CYP450+Oxidoreductase and NADP+Regeneration System (glucose-6-phosphate and glucose-6-phosphate dehydrogenase). After 10 minutes pre-incubation, the enzymatic reaction was initiated by the addition of a mix of NADPH and the appropriate CYP450 substrates. The plate was incubated for the desired reaction time (25 min for CYP1A2, CYP2C9, CYP2D6, and CYP3A4, 60 min for CYP2C19) after which Stop Reagent was added and fluorescence measured using SpectraMax Paradigm Multi-Mode Microplate Reader. All test points were performed in quadruplicates at concentration 10 μM (1% DMSO).
as §1, §2, §3, §4

CYP2C19, sequence (P33261 whole entry): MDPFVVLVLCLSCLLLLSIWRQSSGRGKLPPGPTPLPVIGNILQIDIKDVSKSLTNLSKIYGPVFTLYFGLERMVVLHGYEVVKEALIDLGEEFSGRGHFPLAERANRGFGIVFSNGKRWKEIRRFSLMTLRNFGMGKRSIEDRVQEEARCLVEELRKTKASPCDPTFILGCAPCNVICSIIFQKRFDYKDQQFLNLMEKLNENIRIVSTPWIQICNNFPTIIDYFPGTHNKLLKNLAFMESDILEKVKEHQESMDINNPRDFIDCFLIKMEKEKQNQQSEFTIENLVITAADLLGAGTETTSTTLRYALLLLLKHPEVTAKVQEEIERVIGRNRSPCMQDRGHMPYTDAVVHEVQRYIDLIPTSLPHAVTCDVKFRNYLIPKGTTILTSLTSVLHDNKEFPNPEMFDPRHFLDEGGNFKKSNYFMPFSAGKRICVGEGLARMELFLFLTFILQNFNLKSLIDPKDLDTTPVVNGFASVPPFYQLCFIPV
CYP1A2, sequence (P05177 whole entry): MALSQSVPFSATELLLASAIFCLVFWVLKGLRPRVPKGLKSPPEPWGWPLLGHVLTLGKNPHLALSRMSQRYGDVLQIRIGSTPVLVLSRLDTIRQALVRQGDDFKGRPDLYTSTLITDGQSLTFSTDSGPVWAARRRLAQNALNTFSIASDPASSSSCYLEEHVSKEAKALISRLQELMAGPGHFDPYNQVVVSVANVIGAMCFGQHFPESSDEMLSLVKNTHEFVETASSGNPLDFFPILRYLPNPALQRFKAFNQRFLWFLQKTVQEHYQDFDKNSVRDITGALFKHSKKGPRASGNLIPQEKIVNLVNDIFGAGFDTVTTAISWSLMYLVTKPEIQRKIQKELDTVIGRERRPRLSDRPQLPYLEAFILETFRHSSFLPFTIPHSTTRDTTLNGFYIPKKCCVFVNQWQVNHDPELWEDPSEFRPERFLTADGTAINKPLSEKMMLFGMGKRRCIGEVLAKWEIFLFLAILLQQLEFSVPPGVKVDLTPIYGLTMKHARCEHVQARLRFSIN

| Compound | inhibition at 10 µM (CYP2C19) | microsomal CLint [1] | inhibition at 10 µM (CYP1A2) |
| --- | --- | --- | --- |
| CC(C)Cc1cc(F)c(-c2nn[nH]n2)c(N2CCN(Cc3cccnn3)[C@@H](C)C2)c1 [Compound A-174, 3-[[(2S)-4-[3-fluoro-5-isobutyl-2-(2H-tetrazol-5-yl)phenyl]-2-methyl-piperazin-1-yl]methyl]pyridazine] | 26.5% | 15.3 µL/min/mg | 22.7% |
| CCC1CN(c2cc(CC(C)C)cc(F)c2-c2nn[nH]n2)CCN1Cc1cccnn1 (stereo not drawn) [Compound A-178, 3-[[2-ethyl-4-[3-fluoro-5-isobutyl-2-(2H-tetrazol-5-yl)phenyl]piperazin-1-yl]methyl]pyridazine] | 7.77% | 15 µL/min/mg | 23.5% |
